Assay results published in patent US10828515B2, “Compositions containing phenolic compounds having synergistic antioxidant benefits” (L'OREAL, priority 2016, dated 2020).

Assay: oxygen radical absorbance capacity assay (ORAC)
Format: biochemical
Settings: individual antioxidant compounds
Protocol: Synergism was determined by comparing the antioxidant capacities of combinations of components measured by oxygen radical absorbance capacity assay (ORAC) with expected or additive values of the individual compounds. As reflected in the Examples below, the expected ORAC is the combined (additive) antioxidant capacity of each individual antioxidant compound in the association, measured individually and assuming that each is functioning independently. The expected ORAC value of a certain association can be calculated by using the following equation: ORAC (total)=sum of ORAC (compound n, individually) multiplied by the Percentage (compound n, of use in a cosmetic composition), n=1, 2, 3 . . . .
The ORAC assay measures the oxidative degradation of the fluorescent probe (fluorescein) after being mixed with free radical generators such as azo-initiator compounds (2,2′-Azobis(2-amidinopropane)dihydrochloride, AAPH). Azo-initiators are considered to produce the peroxyl radical by heating, which damages the fluorescent molecule, resulting in the loss of fluorescence. Antioxidants are considered to protect the fluorescent molecule from the oxidative degeneration. By quantifying the decay of fluorescence using a fluorometer, the degree of protection is determined comparing with a standard control antioxidant Trolox. The result is expressed in μMol equivalent of Trolox.
In the case of `OC[C@H]1O[C@@H](Oc2cc(O)cc(/C=C/c3ccc(O)cc3)c2)[C@H](O)[C@@H](O)[C@@H]1O` [Polydatin], the ORAC is reported as 20159 μmolTolox/g. Molecule `Cc1c(C)c2c(c(C)c1O)CCC(C)(C(=O)O)O2` (stereo not drawn) [Trolox (VitE), Trolox] has an ORAC of 1000 μmolTolox/g. With `O=C(O)[C@H]1O[C@@H](Oc2cc3oc(-c4ccccc4)cc(=O)c3c(O)c2O)[C@H](O)[C@@H](O)[C@@H]1O` [baicalin] the ORAC was 4759 μmolTolox/g.
